From patent US12636371B2, “Chemically coupled transporter for low-hydrophobicity bioactive drugs into the central nervous system” (Skybio LLC, priority 2021, dated 2026)
≈ marks a conversion by molar mass, not a printed value. Where two headings read alike, the source gives them in different places.

How the values were obtained:
E. coli DH5α = assay: Antibiotic activity by disc diffusion assay (MIC); type: cell-based; conditions: for MIC: Escherichia coli; for RATE MIC Compound/Doxycycline: ratio of MIC to doxycycline MIC
Experimental: In order to examine the antibiotic activity of the compounds synthesized in Example 1, an assay was performed using E. coli DH5α (Gram(−)), as a sensitive, indicator strain.
The antibacterial activities of test compounds were evaluated using the disc diffusion method (Kavanagh, F. Dilution methods of antibiotic assays in Analytical Microbiology. 1963; Pomares M F, Vincent P A, Farías R N, Salomón R A. Protective action of ppGpp in microcin J25-sensitive strains. J Bacteriol. 2008-190:4328-34). Briefly, filter-paper discs impregnated with 10 μl of two-fold serial dilutions of the test compounds, and were placed onto LB solid medium Petri dishes. Then, aliquots (50 μl) of an E. coli DH5α culture in stationary phase were mixed with 3 ml of top agar (0.7% agar) and overlaid onto the plates. After overnight incubation at 37° C., the plates were examined for different degrees of inhibition. Inhibition degrees produced by the test compound are expressed as Minimum Inhibitory Concentrations (MICs), defined as the lowest concentration of a compound that inhibit visible growth of bacteria. Each test was performed in duplicate vs. the reference compound Doxycycline.

D1 dopamine receptor = D1 dopamine receptor (Homo sapiens, UniProt P21728); assay: D1 receptor agonist assay, cAMP Nomad biosensor, HEK_cAMPNmd_FP650_D1 cells; conditions: 24 h, 10 serial 1:3 dilutions from 30 μM, triplicate
D1 dopamine receptor, sequence (P21728 whole entry): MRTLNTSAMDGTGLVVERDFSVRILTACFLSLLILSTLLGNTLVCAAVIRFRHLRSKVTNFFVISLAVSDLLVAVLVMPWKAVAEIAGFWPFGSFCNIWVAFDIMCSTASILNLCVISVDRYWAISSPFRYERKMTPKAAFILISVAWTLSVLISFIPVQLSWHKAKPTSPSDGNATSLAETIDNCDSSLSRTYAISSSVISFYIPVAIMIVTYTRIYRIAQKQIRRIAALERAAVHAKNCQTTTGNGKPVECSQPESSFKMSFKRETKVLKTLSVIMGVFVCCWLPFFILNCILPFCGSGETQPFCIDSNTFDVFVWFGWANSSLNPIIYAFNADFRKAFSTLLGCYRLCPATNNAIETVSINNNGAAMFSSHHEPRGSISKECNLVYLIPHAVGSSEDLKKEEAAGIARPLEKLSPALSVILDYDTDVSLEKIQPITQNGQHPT
Experimental: To detect Nomad biosensor activation, the assay medium was removed and replaced by 100 ml of DPBS with calcium and magnesium. […] In U2OS_cAMPNmd_FP650_D2 cells, images were acquired using the CellInsight CX7 HCS Platform, and the number of fluorescent vesicles per cell was quantified with the HCS Studio Cell Analysis Software.

D2 dopamine receptor = D2 dopamine receptor (Homo sapiens, UniProt P14416); assay: D2 receptor agonist assay, cAMP Nomad biosensor, U2OS_cAMPNmd_FP650_D2 cells; type: cell-based; conditions: 24 h, 10 serial 1:3 dilutions from 30 μM, triplicate
D2 dopamine receptor, sequence (P14416 whole entry): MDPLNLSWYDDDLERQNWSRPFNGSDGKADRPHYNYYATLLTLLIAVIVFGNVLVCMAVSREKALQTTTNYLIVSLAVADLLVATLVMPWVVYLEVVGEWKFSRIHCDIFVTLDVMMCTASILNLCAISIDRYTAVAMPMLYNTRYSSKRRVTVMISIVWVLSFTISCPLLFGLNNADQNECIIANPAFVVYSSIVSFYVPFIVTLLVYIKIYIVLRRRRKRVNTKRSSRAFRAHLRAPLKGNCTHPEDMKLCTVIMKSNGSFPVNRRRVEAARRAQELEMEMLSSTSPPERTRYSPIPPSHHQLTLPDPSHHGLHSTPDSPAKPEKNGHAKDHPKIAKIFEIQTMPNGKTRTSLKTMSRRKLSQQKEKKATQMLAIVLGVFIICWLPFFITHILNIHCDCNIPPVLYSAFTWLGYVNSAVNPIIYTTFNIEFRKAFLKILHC
Experimental: HEK_cAMPNmd_FP650_D1 and U2OS_cAMPNmd_FP650_D2 cells were seeded at a density of 30.000 and 20.000 cells/well, respectively, in 96-well plates. Cells were maintained in DMEM or DMEM-F12 medium supplemented with 10% FBS during 24 h at 37° C. in a humidified 5% CO2 atmosphere.
Cells were then incubated for 24 h.
To detect Nomad biosensor activation, the assay medium was removed and replaced by […] of DPBS with calcium and magnesium. […] In U2OS_cAMPNmd_FP650_D2 cells, images were acquired using the CellInsight CX7 HCS Platform, and the number of fluorescent vesicles per cell was quantified with the HCS Studio Cell Analysis Software.
The effect of the compounds in the regulation of D1 or D2 receptors' activation was analyzed measuring the CAMP signaling using the Nomad biosensor-based assay.
This same experiment was carried out in the U2OS_cAMPNmd_FP650_D2 cell line (FIG. 10). The effect of the compounds was analyzed quantifying the number of fluorescent vesicles in the cytoplasm of the cells using the HCS Studio Cell Analysis Software.

SH-SY5Y cells = assay: CellROX assay of intracellular reactive oxygen species induced by ASf; type: cell-based; conditions: 10 μM compound alone, 24 h
Experimental: In order to characterize the antioxidant properties of D9, its protective action on the AS-induced production of reactive oxygen species (ROS) in a cellular model was assessed. For this, SH-SY5Y cells were treated with fibrils of AS (ASf) (AS incubated 120 h at 37° C. and 600 rpm), and the reactive oxygen species produced were examined using the CellROX® Orange Reagent (Invitrogen), which undergoes oxidation by ROS to form a stable fluorescent compound.
In addition, cells were also treated with doxycycline 10 μM+7 μM ASf (ASf+Doxy) as a positive control, and 10 μM doxycycline alone (Doxy). All conditions were incubated 24 h at 37° C. and 5% CO2. […] Fluorescent images of randomly chosen fields were acquired with identical acquisition parameters using a Zeiss Axio Vert.A1 inverted fluorescence microscope.

[1] = disc diffusion, two-fold serial dilutions from 2 mg/ml, LB solid medium, overnight 37° C., read-out: MIC

C[C@H]1c2cccc(O)c2C(=O)C2=C(O)[C@]3(O)C(=O)C(C(N)=O)=C(O)C(N(C)C)C3[C@@H](O)C21 (some centres unmarked) [Compound D1, Doxycycline Free Form, reference compound]
MIC (E. coli DH5α; [1]): 31.2 µg/mL (≈ 70.3 µM)
RATE MIC Compound/Doxycycline (E. coli DH5α): 1

C[C@H]1c2cccc(O)c2C(=O)C2=C(O)[C@]3(O)C(=O)C(C(N)=O)=C(O)CC3[C@@H](O)C21 (some centres unmarked) [Compound D3, 4-dedimethylaminodoxycycline]
MIC (E. coli DH5α): 500 µg/mL (≈ 1250 µM)
RATE MIC Compound/Doxycycline (E. coli DH5α): 16

C[C@H]1c2ccc([N+](=O)[O-])c(O)c2C(=O)C2=C(O)[C@]3(O)C(=O)C(C(N)=O)=C(O)CC3[C@@H](O)C21 (some centres unmarked) [Compound D4, 4-dedimethylamino-9-nitro doxycycline]
MIC (E. coli DH5α; [1]): 1000 µg/mL (≈ 2240 µM)
RATE MIC Compound/Doxycycline (E. coli DH5α): 32

C[C@H]1c2ccc(N)c(O)c2C(=O)C2=C(O)[C@]3(O)C(=O)C(C(N)=O)=C(O)CC3[C@@H](O)C21 (some centres unmarked) [Compound D5, 9-amino-4-dedimethylamino doxycycline]
EC50, D1 receptor activation (D1 dopamine receptor): did not act as an agonist of the D1 receptor
EC50, D2 receptor activation (D2 dopamine receptor): did not act as an agonist of the D2 receptor
MIC (E. coli DH5α; [1]): 250 µg/mL (≈ 600 µM)
RATE MIC Compound/Doxycycline (E. coli DH5α): 8

C[C@H]1c2ccc(NC(=O)CCl)c(O)c2C(=O)C2=C(O)[C@]3(O)C(=O)C(C(N)=O)=C(O)CC3[C@@H](O)C21 (some centres unmarked) [Compound D6, 9-(2-chloroacetamido)-4-dedimethylamino doxycycline]
MIC (E. coli DH5α): 2000 µg/mL (≈ 4060 µM)
RATE MIC Compound/Doxycycline (E. coli DH5α): 64

C[C@H]1c2cccc(O)c2C(=O)C2=C(O)[C@]3(O)C(=O)C(C(N)=O)=C(O)[C@@H](N(C)C)[C@@H]3[C@@H](O)[C@@H]21 [Doxycycline, reference compound]
Intracellular ROS induced by compound alone (SH-SY5Y cells): neither the presence of D9 nor doxycycline induced intracellular ROS
MIC (E. coli DH5α; [1]): 31.2 µg/mL (≈ 70.3 µM)
